Target: T1, 5-hydroxytryptamine receptor 1A (Homo sapiens, UniProt P08908)
T1 sequence (P08908 whole entry): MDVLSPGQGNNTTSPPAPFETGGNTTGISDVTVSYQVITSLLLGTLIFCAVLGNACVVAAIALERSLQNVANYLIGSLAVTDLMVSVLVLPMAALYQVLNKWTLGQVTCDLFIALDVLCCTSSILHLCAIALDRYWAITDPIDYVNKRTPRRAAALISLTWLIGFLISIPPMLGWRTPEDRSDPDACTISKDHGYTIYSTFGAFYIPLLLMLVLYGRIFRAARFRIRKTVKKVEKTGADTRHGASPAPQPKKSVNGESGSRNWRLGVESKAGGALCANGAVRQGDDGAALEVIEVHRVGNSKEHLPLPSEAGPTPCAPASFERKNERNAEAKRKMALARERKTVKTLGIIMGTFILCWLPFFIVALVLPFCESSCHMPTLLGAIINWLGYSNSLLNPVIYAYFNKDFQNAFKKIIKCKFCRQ
Assay: serotonin 1A receptor activation, dose response (AID 718)
Conditions: pH 7.4; 23 °C

EC50, 50 µM:
CN1CCN(C(N=O)c2nonc2N)CC1 (stereo not drawn)
Cn1cc(C(Cc2ccccc2)N=O)c2ccccc21 (stereo not drawn) [1-(1-methyl-3-indolyl)-2-phenylethanone oxime]
CCOC(=O)C1C(C)=NC(=O)NC1c1ccc(OCC(=O)Nc2ccccc2)c(OC)c1 (stereo not drawn) [SMR000093032]
